Data as given in patent US6770673B1, “Therapeutic uses of arglabin in combination with other chemotherapy agents” (priority 1997, dated 2004).
Marks after values point to notes of the source that are not given here.

What was measured:
Solubility in water = format: physicochemical
Pliss lymphosarcoma = assay: Inhibition of tumor growth in implanted tumors; format: in vivo, rats; details: dose 30 mg/kg
Geren's carcinosarcoma = assay: Inhibition of tumor growth in implanted tumors; format: in vivo, mice and rats
[1] = system: Sarcoma-45 resistant to prospidine; assay: Inhibition of growth of resistant tumour strains; format: in vivo, rats; details: dose 50 mg/kg
immune system [2] = assay: Immunity of rats with initial and prospidin resistant tumors with metastases; format: in vivo; details: sarcolysin, cisplatin
immune system [3] = assay: Immunological indices in intact August rats; format: in vivo; details: about 50 mg/kg IP daily for 10 days
Excerpt: Additional immunological data were obtained from an “August” line of rats, weighing 140-160 g, with and without Pliss lymphosarcoma. […] Results are summarized in Table V. Overall, lyophilized-dimethylaminoarglabin hydrochloride stimulated delayed type hypersensitivity, but reduced all other studied indices in intact rats. In rats with Pliss Lymphosarcoma, the immune system was stimulated, as all studied indices increased.

immune system [4] = assay: Indices of patients' immunity, rozette forming and phagocytosis methods (Table X); format: in vivo, human
Experimental: The indices of immune system were determined using rozette forming and phagocytosis methods. […] Eleven indices of cellular and humoral immunity were measured from each patient in order to evaluate immune status. The following indices were determined on 0.05 ml of peripheral blood: absolute and relative amount of T- and B-lymphocytes, amount of non-differentiated “zero” cells, adhesion and phagocyte activity of neutrophils, hemogram, level of serum immunoglobulins. Indices were determined before treatment, on days 2, 5 and 14 of treatment, and after treatment.
Mean values of immunological indices were evaluated with regression analysis. Functional conditions of the immune system were estimated using integral indices such as a mean intensity (correlation) expressed in relative units.

CC1=CCC23OC2(C)CCC2C(CN(C)C)C(=O)OC2C13.Cl (stereo not shown) [Dimethylaminoarglabin hydrochloride]
solubility in water (Solubility in water): soluble in water | Inhibition of Tumour Growth, % - Pliss lymphosarcoma (Pliss lymphosarcoma): 79.6% | Inhibition of Tumour Growth, % - Geren's carcinosarcoma (Geren's carcinosarcoma; dose 30 mg/kg): 80.1% | Inhibition of Tumour Growth, % - Geren's carcinosarcoma (Geren's carcinosarcoma; dose 50 mg/kg): 83.3* % | Inhibition of Tumour Strains Growth, % - Resistant Forms - Sarcoma-45 to prospidine [1]: 87.4*** % | effect on immunodepression caused by cytostatics (immune system [2]): softened the immunodepressive effect of cytostatics | Hemagglutination (RHG), Intact Rats After Treatment (immune system [3]; Decreased): 43-53% | Nitroblue tetrazolium (NBT), Intact Rats After Treatment (immune system [3]; Decreased): 67-91% | Spontaneous-erythrocyte rosette forming (E-ROK), Intact Rats After Treatment (immune system [3]; Decreased): 64-84% | Delayed type hypersensitivity, Intact Rats After Treatment (immune system [3]; Increased): 153-207% | level of non-differentiated "zero" cells (immune system [4]; 2nd-5th day of treatment): increased | percentage of T-lymphocytes and T-helper lymphocytes (immune system [4]; 2nd-5th day of treatment): reduced considerably | immunoglobulins A, M and G (immune system [4]; after the treatment): increased amount
